From US6762174B1 (priority 1998, dated 2004)
Where two headings read alike, the source gives them in different places.

What was measured:
B16 melanoma = format: in vivo, female BDF1 mice
MOPC-315 myeloma [1] = assay: MOPC-315 Myeloma study #2: β-alethine ip day 10 (1 × 10^6 tumor cells); conditions: for Mean Tumor Size: 3 mg BT alone
MOPC-315 myeloma [2] = assay: MOPC-315 Myeloma study #3: β-alethine ip day 0 (3 × 10^5 tumor cells); conditions: for Animals Surviving: BT 100 ng/kg

NCCC(=O)NCCSSCCNC(=O)CCN [BT, β-alethine]
Primary Tumor Size (Median RTV) (B16 melanoma; BT 30 pg/kg alone, day 0): 1 | Primary Tumor Size (Median RTV) (B16 melanoma; BT 30 pg/kg alone, day 4): 1.0 | Primary Tumor Size (Median RTV) (B16 melanoma; BT 30 pg/kg alone, day 7): 1.8 | Primary Tumor Size (Median RTV) (B16 melanoma; BT 30 pg/kg alone, day 10): 6.0 | Primary Tumor Size (Median RTV) (B16 melanoma; BT 30 pg/kg alone, day 14): 17.3 | Primary Tumor Size (Median RTV) (B16 melanoma; BT 30 pg/kg alone, day 17): 62.0 | Primary Tumor Size (Median RTV) (B16 melanoma; BT 30 ng/kg alone, day 0): 1 | Primary Tumor Size (Median RTV) (B16 melanoma; BT 30 ng/kg alone, day 4): 1.0 | Primary Tumor Size (Median RTV) (B16 melanoma; BT 30 ng/kg alone, day 7): 3.1 | Primary Tumor Size (Median RTV) (B16 melanoma; BT 30 ng/kg alone, day 10): 8.1 | Primary Tumor Size (Median RTV) (B16 melanoma; BT 30 ng/kg alone, day 14): 15.7 | Primary Tumor Size (Median RTV) (B16 melanoma; BT 30 ng/kg alone, day 17): 32.4 | Primary Tumor Size (Median RTV) (B16 melanoma; BT 30 ug/kg alone, day 0): 1 | Primary Tumor Size (Median RTV) (B16 melanoma; BT 30 ug/kg alone, day 4): 1.0 | Primary Tumor Size (Median RTV) (B16 melanoma; BT 30 ug/kg alone, day 7): 1.3 | Primary Tumor Size (Median RTV) (B16 melanoma; BT 30 ug/kg alone, day 10): 5.5 | Primary Tumor Size (Median RTV) (B16 melanoma; BT 30 ug/kg alone, day 14): 16.6 | Primary Tumor Size (Median RTV) (B16 melanoma; BT 30 ug/kg alone, day 17): 30.4 | Primary Tumor Size (Median RTV) (B16 melanoma; BT 30 mg/kg alone, day 0): 1 | Primary Tumor Size (Median RTV) (B16 melanoma; BT 30 mg/kg alone, day 4): 1.7 | Primary Tumor Size (Median RTV) (B16 melanoma; BT 30 mg/kg alone, day 7): 3.3 | Primary Tumor Size (Median RTV) (B16 melanoma; BT 30 mg/kg alone, day 10): 7.5 | Primary Tumor Size (Median RTV) (B16 melanoma; BT 30 mg/kg alone, day 14): 23.2 | Primary Tumor Size (Median RTV) (B16 melanoma; BT 30 mg/kg alone, day 17): 34.8 | Primary Tumor Size (Median RTV) (B16 melanoma; BT 30 fg/kg alone, day 0): 1 | Primary Tumor Size (Median RTV) (B16 melanoma; BT 30 fg/kg alone, day 4): 1.7 | Primary Tumor Size (Median RTV) (B16 melanoma; BT 30 fg/kg alone, day 7): 2.4 | Primary Tumor Size (Median RTV) (B16 melanoma; BT 30 fg/kg alone, day 10): 7.0 | Primary Tumor Size (Median RTV) (B16 melanoma; BT 30 fg/kg alone, day 14): 16.1 | Primary Tumor Size (Median RTV) (B16 melanoma; BT 30 fg/kg alone, day 17): 41.6 | Mean Tumor Size (MOPC-315 myeloma [1]; day 10): 21.5 mm | Mean Tumor Size (MOPC-315 myeloma [1]; day 14): 24 mm | Mean Tumor Size (MOPC-315 myeloma [1]; day 17): 24 mm | Mean Tumor Size (MOPC-315 myeloma [1]; day 21): (dead) | Animals Surviving (MOPC-315 myeloma [1]; BT 3 ng/kg, day 10): 10 | Animals Surviving (MOPC-315 myeloma [1]; BT 3 ng/kg, day 11): 10 | Animals Surviving (MOPC-315 myeloma [1]; BT 3 ng/kg, day 12): 10 | Animals Surviving (MOPC-315 myeloma [1]; BT 3 ng/kg, day 13): 10 | Animals Surviving (MOPC-315 myeloma [1]; BT 3 ng/kg, day 14): 7 | Animals Surviving (MOPC-315 myeloma [1]; BT 3 ng/kg, day 15): 5 | Animals Surviving (MOPC-315 myeloma [1]; BT 3 ng/kg, day 16): 5 | Animals Surviving (MOPC-315 myeloma [1]; BT 3 ng/kg, day 17): 4 | Animals Surviving (MOPC-315 myeloma [1]; BT 3 ng/kg, day 18): 1 | Animals Surviving (MOPC-315 myeloma [1]; BT 3 ng/kg, day 19): 1 | Animals Surviving (MOPC-315 myeloma [1]; BT 3 ng/kg, day 20): 1 | Animals Surviving (MOPC-315 myeloma [1]; BT 3 ng/kg, day 21): 0 | Animals Surviving (MOPC-315 myeloma [1]; BT 100 μg/kg, day 10): 10 | Animals Surviving (MOPC-315 myeloma [1]; BT 100 μg/kg, day 11): 9 | Animals Surviving (MOPC-315 myeloma [1]; BT 100 μg/kg, day 12): 6 | Animals Surviving (MOPC-315 myeloma [1]; BT 100 μg/kg, day 13): 5 | Animals Surviving (MOPC-315 myeloma [1]; BT 100 μg/kg, day 14): 5 | Animals Surviving (MOPC-315 myeloma [1]; BT 100 μg/kg, day 15): 5 | Animals Surviving (MOPC-315 myeloma [1]; BT 100 μg/kg, day 16): 4 | Animals Surviving (MOPC-315 myeloma [1]; BT 100 μg/kg, day 17): 4 | Animals Surviving (MOPC-315 myeloma [1]; BT 100 μg/kg, day 18): 1 | Animals Surviving (MOPC-315 myeloma [1]; BT 100 μg/kg, day 19): 1 | Animals Surviving (MOPC-315 myeloma [1]; BT 100 μg/kg, day 20): 0 | Animals Surviving (MOPC-315 myeloma [1]; BT 3 mg/kg, day 10): 10 | Animals Surviving (MOPC-315 myeloma [1]; BT 3 mg/kg, day 11): 9 | Animals Surviving (MOPC-315 myeloma [1]; BT 3 mg/kg, day 12): 6 | Animals Surviving (MOPC-315 myeloma [1]; BT 3 mg/kg, day 13): 5 | Animals Surviving (MOPC-315 myeloma [1]; BT 3 mg/kg, day 14): 5 | Animals Surviving (MOPC-315 myeloma [1]; BT 3 mg/kg, day 15): 5 | Animals Surviving (MOPC-315 myeloma [1]; BT 3 mg/kg, day 16): 4 | Animals Surviving (MOPC-315 myeloma [1]; BT 3 mg/kg, day 17): 4 | Animals Surviving (MOPC-315 myeloma [1]; BT 3 mg/kg, day 18): 1 | Animals Surviving (MOPC-315 myeloma [1]; BT 3 mg/kg, day 19): 1 | Animals Surviving (MOPC-315 myeloma [1]; BT 3 mg/kg, day 20): 0 | Animals Surviving (MOPC-315 myeloma [1]; BT 30 fg/kg, day 10): 10 | Animals Surviving (MOPC-315 myeloma [1]; BT 30 fg/kg, day 11): 10 | Animals Surviving (MOPC-315 myeloma [1]; BT 30 fg/kg, day 12): 9 | Animals Surviving (MOPC-315 myeloma [1]; BT 30 fg/kg, day 13): 7 | Animals Surviving (MOPC-315 myeloma [1]; BT 30 fg/kg, day 14): 5 | Animals Surviving (MOPC-315 myeloma [1]; BT 30 fg/kg, day 15): 5 | Animals Surviving (MOPC-315 myeloma [1]; BT 30 fg/kg, day 16): 1 | Animals Surviving (MOPC-315 myeloma [1]; BT 30 fg/kg, day 17): 1 | Animals Surviving (MOPC-315 myeloma [1]; BT 30 fg/kg, day 18): 0 | Animals Surviving (MOPC-315 myeloma [2]; day 10): 10 | Animals Surviving (MOPC-315 myeloma [2]; day 11): 10 | Animals Surviving (MOPC-315 myeloma [2]; day 12): 10 | Animals Surviving (MOPC-315 myeloma [2]; day 13): 10 | Animals Surviving (MOPC-315 myeloma [2]; day 14): 7 | Animals Surviving (MOPC-315 myeloma [2]; day 17): 0 | survival prolonged to (MOPC-315 myeloma [2]; BT 3 mg/kg, control 16 days): 18 days
